According to publication PMC6508984 (Journal of medicinal chemistry, 2019):

Experiments:
[1] = biological target: GluA1i (Rattus norvegicus, UniProt P19490); experiment: Ca2+/Fluo-4 assay, GluA1i-HEK293 cell line; assay type: cell-based
[2] = biological target: GluA2i(Q) (Rattus norvegicus, UniProt P19491); experiment: Ca2+/Fluo-4 assay, GluA2; assay type: cell-based; settings: for GluA2i(Q) SAR@: concentration giving significant agonist response >5% of the maximal response induced by (S)-Glu: HEK293, complete concentration-response curve could not be obtained
[3] = biological target: GluA3i (Rattus norvegicus, UniProt P19492); experiment: Ca2+/Fluo-4 assay, GluA3i-HEK293 cell line; assay type: cell-based
[4] = biological target: GluA4i (Rattus norvegicus, UniProt P19493); experiment: cell-based; settings: GluA4i EC50, HEK293; 10 mM Ca2+ and 100 μM cyclothiazide; tested up to 1000 μM
[5] = biological target: GluA2(R)o (Rattus norvegicus, UniProt P19491, Q607R); settings: Hill coefficient of binding curve
[6] = biological target: GluA1o (Rattus norvegicus, UniProt P19490); settings: Hill coefficient of binding curve
[7] = biological target: GluA3o (Rattus norvegicus, UniProt P19492); settings: Hill coefficient of binding curve
[8] = biological target: GluA4o (Rattus norvegicus, UniProt P19493); settings: Hill coefficient of binding curve
[9] = biological target: GluN1/2B (Rattus norvegicus, UniProt P35439+Q00960); settings: 100 μM, in absence of both Glu and Gly
[10] = biological target: GluN1/2C (Rattus norvegicus, UniProt P35439+Q00961); settings: 100 μM, in absence of both Glu and Gly
[11] = biological target: GluN1/2D (Rattus norvegicus, UniProt P35439+Q62645); settings: 100 μM, in absence of both Glu and Gly

Sequence of GluA2i(Q) (P19491 22-883 isoform P19491-2 limits assumed): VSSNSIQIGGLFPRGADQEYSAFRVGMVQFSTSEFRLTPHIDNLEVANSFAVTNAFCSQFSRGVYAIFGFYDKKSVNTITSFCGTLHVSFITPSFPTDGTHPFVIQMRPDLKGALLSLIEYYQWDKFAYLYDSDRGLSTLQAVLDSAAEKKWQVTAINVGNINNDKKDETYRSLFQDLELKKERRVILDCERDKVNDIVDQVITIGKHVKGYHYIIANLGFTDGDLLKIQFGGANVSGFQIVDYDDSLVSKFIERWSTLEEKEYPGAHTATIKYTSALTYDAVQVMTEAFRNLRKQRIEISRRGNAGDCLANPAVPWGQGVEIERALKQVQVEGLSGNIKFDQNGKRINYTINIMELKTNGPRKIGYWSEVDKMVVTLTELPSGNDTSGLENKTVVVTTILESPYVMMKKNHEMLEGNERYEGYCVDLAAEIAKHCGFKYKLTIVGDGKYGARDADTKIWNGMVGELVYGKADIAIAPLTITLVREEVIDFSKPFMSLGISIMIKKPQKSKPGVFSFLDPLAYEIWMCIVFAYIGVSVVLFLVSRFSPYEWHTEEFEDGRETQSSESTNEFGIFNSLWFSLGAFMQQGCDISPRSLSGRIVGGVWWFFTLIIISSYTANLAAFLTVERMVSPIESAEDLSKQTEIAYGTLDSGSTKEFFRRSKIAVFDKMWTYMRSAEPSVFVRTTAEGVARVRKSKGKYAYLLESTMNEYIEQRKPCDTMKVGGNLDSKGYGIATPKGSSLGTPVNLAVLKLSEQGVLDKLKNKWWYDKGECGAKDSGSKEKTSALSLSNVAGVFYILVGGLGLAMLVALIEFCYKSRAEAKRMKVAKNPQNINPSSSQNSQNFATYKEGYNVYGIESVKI
Sequence of GluA3o (P19492 23-888): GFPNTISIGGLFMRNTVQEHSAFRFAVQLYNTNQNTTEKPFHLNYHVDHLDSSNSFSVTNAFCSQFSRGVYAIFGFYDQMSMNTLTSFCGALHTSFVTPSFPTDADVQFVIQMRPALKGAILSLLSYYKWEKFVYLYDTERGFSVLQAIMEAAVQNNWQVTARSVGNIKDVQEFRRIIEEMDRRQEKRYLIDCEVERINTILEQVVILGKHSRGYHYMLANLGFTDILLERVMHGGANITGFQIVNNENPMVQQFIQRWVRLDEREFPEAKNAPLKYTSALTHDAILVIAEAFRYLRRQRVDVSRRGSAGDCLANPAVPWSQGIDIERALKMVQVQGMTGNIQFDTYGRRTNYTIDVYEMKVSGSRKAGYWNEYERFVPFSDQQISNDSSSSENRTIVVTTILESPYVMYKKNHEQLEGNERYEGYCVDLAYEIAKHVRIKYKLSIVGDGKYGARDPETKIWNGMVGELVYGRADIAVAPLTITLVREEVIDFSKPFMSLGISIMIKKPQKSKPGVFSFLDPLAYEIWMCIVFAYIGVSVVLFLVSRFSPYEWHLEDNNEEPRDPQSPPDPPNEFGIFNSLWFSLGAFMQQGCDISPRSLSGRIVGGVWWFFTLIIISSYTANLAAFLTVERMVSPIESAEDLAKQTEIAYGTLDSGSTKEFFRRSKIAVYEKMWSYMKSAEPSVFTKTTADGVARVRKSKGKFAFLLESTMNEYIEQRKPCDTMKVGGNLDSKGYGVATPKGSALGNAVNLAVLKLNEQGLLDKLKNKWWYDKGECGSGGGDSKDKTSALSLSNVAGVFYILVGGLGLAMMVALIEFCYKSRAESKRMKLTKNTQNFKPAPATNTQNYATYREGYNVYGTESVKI
Sequence of GluA1o (P19490 19-907): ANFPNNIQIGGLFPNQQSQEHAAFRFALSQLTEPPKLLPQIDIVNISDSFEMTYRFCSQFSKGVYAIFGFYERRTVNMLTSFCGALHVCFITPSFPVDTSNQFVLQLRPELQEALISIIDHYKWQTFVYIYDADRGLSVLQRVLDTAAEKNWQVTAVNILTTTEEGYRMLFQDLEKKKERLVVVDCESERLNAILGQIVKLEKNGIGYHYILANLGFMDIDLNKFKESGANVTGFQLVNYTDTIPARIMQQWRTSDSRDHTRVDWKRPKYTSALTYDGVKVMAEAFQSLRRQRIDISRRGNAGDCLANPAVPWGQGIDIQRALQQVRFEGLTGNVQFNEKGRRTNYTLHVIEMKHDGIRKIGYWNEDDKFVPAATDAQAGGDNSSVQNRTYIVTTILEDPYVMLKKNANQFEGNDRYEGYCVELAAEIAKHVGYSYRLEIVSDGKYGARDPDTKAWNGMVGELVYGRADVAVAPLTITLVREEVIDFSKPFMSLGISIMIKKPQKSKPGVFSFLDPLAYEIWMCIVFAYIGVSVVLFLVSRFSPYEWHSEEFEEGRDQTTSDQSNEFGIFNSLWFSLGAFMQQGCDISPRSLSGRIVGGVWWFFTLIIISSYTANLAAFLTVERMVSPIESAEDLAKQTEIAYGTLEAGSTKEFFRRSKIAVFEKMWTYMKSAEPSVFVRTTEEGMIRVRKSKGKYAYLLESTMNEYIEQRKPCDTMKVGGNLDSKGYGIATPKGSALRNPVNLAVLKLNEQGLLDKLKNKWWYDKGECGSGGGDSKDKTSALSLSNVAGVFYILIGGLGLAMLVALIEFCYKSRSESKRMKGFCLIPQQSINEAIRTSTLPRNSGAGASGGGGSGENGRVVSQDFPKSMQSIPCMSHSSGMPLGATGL
Sequence of GluA3i (P19492 23-888 isoform P19492-2 limits assumed): as the sequence (P19492 23-888) above, with N748T, A749P, N758S, L762I, S779A, G780K, G781D, G782S, D783G counted along it
Sequence of GluA1i (P19490 19-907 isoform P19490-2 limits assumed): as the sequence (P19490 19-907) above, with N740G, N750S, L754V, N760S, G772K, G773D, G774S, D775G counted along it
Sequence of GluA2(R)o (P19491 22-883 Q607R): as the sequence (P19491 22-883 isoform P19491-2 limits assumed) above, with Q586R, T744N, P745A, S754N, V758L, A775S, K776G, D777G, S778G, G779D counted along it
Sequence of GluN1/2C (Q00961 20-1237, other chains not shown): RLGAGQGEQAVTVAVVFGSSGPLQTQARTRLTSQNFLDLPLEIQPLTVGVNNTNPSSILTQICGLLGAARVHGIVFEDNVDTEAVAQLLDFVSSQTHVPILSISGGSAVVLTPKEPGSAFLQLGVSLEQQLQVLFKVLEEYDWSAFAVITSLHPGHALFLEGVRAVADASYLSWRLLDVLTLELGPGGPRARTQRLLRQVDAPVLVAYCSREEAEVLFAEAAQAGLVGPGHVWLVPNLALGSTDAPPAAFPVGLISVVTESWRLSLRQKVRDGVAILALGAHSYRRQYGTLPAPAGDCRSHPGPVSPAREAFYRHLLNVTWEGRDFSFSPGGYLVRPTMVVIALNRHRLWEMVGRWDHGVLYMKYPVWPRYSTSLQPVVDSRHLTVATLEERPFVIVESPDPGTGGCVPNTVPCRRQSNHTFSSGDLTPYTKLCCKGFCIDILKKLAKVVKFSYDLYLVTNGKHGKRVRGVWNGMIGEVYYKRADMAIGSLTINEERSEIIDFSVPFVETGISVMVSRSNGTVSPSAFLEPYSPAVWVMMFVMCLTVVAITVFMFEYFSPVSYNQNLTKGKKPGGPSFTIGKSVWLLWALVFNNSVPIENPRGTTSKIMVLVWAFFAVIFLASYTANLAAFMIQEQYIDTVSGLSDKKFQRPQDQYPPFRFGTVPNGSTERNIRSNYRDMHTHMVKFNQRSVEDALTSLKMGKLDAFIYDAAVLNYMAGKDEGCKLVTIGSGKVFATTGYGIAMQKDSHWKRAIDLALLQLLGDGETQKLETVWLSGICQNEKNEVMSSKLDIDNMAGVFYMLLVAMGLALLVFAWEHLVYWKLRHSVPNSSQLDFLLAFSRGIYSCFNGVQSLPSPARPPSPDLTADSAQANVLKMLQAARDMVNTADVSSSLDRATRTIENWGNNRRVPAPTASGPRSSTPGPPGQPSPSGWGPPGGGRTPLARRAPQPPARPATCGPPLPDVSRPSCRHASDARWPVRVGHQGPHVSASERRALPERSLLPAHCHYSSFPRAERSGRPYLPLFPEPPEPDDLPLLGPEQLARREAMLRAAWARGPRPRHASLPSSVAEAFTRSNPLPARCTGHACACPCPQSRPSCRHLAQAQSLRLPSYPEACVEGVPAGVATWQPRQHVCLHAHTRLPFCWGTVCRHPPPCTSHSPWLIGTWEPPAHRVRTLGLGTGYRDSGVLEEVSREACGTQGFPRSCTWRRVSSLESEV
Sequence of GluA4o (P19493 21-902): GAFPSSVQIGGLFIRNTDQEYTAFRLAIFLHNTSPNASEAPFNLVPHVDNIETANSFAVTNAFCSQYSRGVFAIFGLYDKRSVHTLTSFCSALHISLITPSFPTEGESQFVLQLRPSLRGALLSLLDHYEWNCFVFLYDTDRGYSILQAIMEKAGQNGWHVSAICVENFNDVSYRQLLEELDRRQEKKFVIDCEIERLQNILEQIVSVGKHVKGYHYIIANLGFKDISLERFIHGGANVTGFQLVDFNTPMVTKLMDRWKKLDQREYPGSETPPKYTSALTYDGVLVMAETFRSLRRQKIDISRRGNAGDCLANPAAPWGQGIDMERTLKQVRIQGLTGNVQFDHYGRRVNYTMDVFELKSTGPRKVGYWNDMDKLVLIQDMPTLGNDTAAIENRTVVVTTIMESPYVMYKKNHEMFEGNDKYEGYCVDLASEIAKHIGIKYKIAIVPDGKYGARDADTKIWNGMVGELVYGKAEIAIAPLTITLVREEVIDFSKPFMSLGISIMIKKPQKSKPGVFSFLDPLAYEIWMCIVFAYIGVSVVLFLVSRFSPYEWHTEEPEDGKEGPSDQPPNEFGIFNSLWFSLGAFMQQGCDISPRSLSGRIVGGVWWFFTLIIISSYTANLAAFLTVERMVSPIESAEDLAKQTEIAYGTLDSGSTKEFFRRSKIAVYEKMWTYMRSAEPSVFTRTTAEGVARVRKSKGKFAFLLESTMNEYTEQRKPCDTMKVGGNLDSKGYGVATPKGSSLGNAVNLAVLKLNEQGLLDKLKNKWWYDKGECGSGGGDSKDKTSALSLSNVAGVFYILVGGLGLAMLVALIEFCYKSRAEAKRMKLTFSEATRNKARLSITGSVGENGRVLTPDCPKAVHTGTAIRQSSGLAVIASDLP

CCn1nc(O)c(CC(N)C(=O)O)n1 (racemic) [Compound 7b, (RS) 2-Amino-3-(2-ethyl-5-hydroxy-2H-1,2,3-triazol-4-yl)propanoic acid]
EC50 [1]: > 1000 µM | EC50 [2]: > 1000 µM | EC50 [3]: > 1000 µM | EC50 [4]: > 1000 µM

CCCn1nnc(O)c1CC(N)C(=O)O (racemic) [Compound 6c, (RS) 2-Amino-3-(4-hydroxy-1-propyl-1H-1,2,3-triazol-5-yl)propanoic acid]
GluA2i(Q) SAR@: concentration giving significant agonist response >5% of the maximal response induced by (S)-Glu [2]: SAR@ 1000 μM | GluA2(R)o nH [5]: 1.55 ± 0.65 | GluA1o nH [6]: 0.81 ± 0.07 | GluA3o nH [7]: 0.75 ± 0.09

Cn1nnc(O)c1CC(N)C(=O)O (racemic) [Compound 6a, (RS) 2-Amino-3-(4-hydroxy-1-methyl-1H-1,2,3-triazol-5-yl)propanoic acid]
GluA2i(Q) SAR@: concentration giving significant agonist response >5% of the maximal response induced by (S)-Glu [2]: SAR@ 300 μM | GluA2(R)o nH [5]: 0.95 ± 0.09 | GluA1o nH [6]: 1.02 ± 0.17 | GluA3o nH [7]: 0.95 ± 0.25 | GluA4o nH [8]: 0.89 ± 0.07

CCCn1nc(O)c(CC(N)C(=O)O)n1 (racemic) [Compound 7c, (RS) 2-Amino-3-(5-hydroxy-2-propyl-2H-1,2,3-triazol-4-yl)propanoic acid]
EC50 [1]: > 1000 µM | EC50 [2]: > 1000 µM | EC50 [3]: > 1000 µM

Cn1nc(O)c(C(N)C(=O)O)n1 (racemic) [Compound 8, (RS) 2-Amino-2-(5-hydroxy-2-methyl-2H-1,2,3-triazol-4-yl)acetic acid]
Activation by compound alone [9]: able to activate | Activation by compound alone [10]: able to activate | Activation by compound alone [11]: able to activate
